Patent US7541364B2, “Pyridomorphinans, pyridazinomorphinans and use thereof” (priority 2003, dated 2009)
Where two headings read alike, the source gives them in different places.

Key:
[1] = target: T1, δ receptor (mouse vas deferens) (Mus musculus, UniProt P32300); settings: percentage inhibition of contraction at 1 μM; data from Ananthan et al. (I); cited from earlier work
mice [2] = settings: repeated ip injections; Wells et al.; cited from earlier work
human μ receptors = human μ receptors (Homo sapiens, UniProt P35372); settings: cloned cells expressing human μ receptors; Xu et al.; cited from earlier work
Sequence of human μ receptors (P35372 whole entry): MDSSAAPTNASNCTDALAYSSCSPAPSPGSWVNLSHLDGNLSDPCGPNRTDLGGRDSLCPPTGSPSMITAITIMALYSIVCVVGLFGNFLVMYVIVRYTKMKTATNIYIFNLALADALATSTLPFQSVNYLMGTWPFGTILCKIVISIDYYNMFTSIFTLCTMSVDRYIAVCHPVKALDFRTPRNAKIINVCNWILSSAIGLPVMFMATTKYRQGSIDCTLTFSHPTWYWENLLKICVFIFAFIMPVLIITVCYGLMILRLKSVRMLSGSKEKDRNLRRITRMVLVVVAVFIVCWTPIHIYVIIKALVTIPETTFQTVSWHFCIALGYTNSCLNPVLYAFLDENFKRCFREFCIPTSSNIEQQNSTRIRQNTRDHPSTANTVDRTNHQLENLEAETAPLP

δ receptor = δ receptor (Cavia porcellus, UniProt A0A286XTF2); test: biochemical
Sequence of δ receptor (A0A286XTF2 1-366): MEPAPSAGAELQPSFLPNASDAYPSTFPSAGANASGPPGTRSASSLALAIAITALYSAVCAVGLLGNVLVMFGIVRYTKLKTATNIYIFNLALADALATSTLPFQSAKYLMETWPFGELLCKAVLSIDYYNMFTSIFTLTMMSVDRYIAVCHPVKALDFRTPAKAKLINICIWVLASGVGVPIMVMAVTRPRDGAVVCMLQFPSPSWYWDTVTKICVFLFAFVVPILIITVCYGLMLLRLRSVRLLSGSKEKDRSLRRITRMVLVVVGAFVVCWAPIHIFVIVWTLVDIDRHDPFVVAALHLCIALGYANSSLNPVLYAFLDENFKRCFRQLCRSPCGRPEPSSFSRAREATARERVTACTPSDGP

mice [3] = settings: icv or ip administration in mice; Wells et al.; cited from earlier work
mice [4] = settings: icv or ip administration in mice; Wells et al.; cited from earlier work; remark: listed apart in the source
κ receptor = κ receptor (Cavia porcellus, UniProt P41144); settings: read-out: antagonist activity apparent Ki (nM ± SD) κ
Sequence of κ receptor (P41144 whole entry): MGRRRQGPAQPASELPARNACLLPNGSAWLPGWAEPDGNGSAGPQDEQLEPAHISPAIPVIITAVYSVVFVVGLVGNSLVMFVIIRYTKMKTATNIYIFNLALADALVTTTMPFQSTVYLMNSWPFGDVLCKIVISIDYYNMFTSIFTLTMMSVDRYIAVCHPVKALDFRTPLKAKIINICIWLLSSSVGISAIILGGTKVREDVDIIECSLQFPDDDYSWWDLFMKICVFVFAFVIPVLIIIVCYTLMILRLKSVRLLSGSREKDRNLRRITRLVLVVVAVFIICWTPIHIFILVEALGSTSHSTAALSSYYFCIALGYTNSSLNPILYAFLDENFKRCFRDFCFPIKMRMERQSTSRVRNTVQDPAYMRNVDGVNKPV

mice [5] = test: 55° C. tail-flick antinociception test in mice; settings: for naloxone sensitivity: naloxone 10 mg/kg ip, -10 min, yes = greater than 80% reduction in the antinociceptive effect
Procedure: Analgesic Testing and Assessment of Tolerance Development. The analgesic activity of selected ligands is tested in mice using the 55° C. tail-flick test as previously described. (See Wells et al., supra.) The test compounds are administered by the intracerbroventricular (icv) route. […] To determine whether the analgesic activity of the tested compounds is mediated through opioid receptors, the blockade of antinociceptive activity by pretreatment with naloxone is carried out. The analgesic activity was considered as naloxone sensitive if greater than 80% reduction in the antinociceptive response is observed.
Antinociceptive Studies. Male ICR mice (Harlan) are used for all evaluations. Mice are housed in a temperature and humidity controlled vivarium on a 12:12 h light:dark cycle with unlimited access to food and water prior to the formal procedures. […] The dihydrochloride salt of 7h is dissolved in water and injected in a volume of 5 μL. All other compounds are dissolved in 100% DMSO and injected in a volume of 5 μL. Antinociceptive assays are performed at various times after injection.
Percent antinociception is calculated using the formula: % MPE (maximal possible effect)=100×(test−control)/(cutoff−control) where control is the predrug observation, test is the postdrug observation, and cutoff is the maximal length of stimulus allowed (10 s for 55° C. tail-flick). Antinociceptive A50 values and 95% confidence intervals are determined using linear regression software (FlashCalc). Opioid activity of the test compounds are assessed by pretreating animals with naloxone (10 mg/kg ip, −10 min) followed by an icv injection of an approximate A90 dose of test compound. […] Antinociception is assessed in the 55° C. tail-flick test at 10, 20 and 30 min. A positive response to a fixed dose of naloxone is indicated when greater than 80% reduction in the antinociceptive effect of the agonist is observed.

μ receptor [6] = target: T2, μ receptor (Cavia porcellus, UniProt A0ACM8Q262); settings: guinea pig caudate membranes; Xu et al.; cited from earlier work
T2 sequence (A0ACM8Q262 1-400): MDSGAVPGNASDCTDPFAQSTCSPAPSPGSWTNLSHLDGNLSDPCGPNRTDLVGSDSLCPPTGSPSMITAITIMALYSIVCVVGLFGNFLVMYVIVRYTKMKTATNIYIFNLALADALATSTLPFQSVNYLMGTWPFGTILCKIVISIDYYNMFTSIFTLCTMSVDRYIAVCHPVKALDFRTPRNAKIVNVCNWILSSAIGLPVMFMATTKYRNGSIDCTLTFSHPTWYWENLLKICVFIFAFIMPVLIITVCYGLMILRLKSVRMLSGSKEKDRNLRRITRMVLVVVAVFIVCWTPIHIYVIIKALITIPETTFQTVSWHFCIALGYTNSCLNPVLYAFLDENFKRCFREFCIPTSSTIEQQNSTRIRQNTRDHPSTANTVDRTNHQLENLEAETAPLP

[7] = target: T1, δ receptor (mouse vas deferens); test: Mouse vas deferens (MVD) smooth muscle bioassay; settings: inhibition of electrically stimulated contractions; read-out: agonist activity MVD (δ) IC50
Procedure: (§1) Bioassays in Smooth Muscle Preparations. The functional activity profiles of selected ligands are also determined in the mouse vas deferens (MVD) and guinea pig ileum (GPI) smooth muscle preparations as described previously.
(§2) The agonist activity is determined by the ability of the compound to inhibit electrically stimulated contractions of the GPI and MVD. The GPI is primarily a μ receptor preparation, even though the ileum does also contain κ receptors. In the MVD, the opioid effects are predominantly mediated through δ receptors, but μ and κ receptors also exist in this tissue.
(§3) Tissues came from male ICR mice weighing 25-40 g and male Hartley guinea pigs weighing 250-500 g. The tissues are tied to gold chain with suture silk, suspended in 20 mL baths containing 37° C. oxygenated (95% O2, 5% CO2) Krebs bicarbonate solution (magnesium free for the MVD), and allowed to equilibrate for 15 min. The tissues are then stretched to optimal length previously determined to be 1 g tension (0.5 g for MVD) and allowed to equilibrate for 15 min. The tissues are stimulated transmurally between platinum wire electrodes at 0.1 Hz, 0.4 ms pulses (2-ms pulses for MVD), and supramaximal voltage. […] Tissues not producing typical results are not used. Experimental compounds were added to the baths in 14-60 μL volumes. Succeeding doses of agonist are added cumulatively to the bath at 3 min intervals to produce a concentration-response curve. The tissues are then washed extensively with fresh buffer until the original contraction height is reestablished. […] The tissues are then washed with fresh buffer for 30 min, and the agonist dose-response curve was repeated. Rightward shifts in the dose-response curves are calculated by dividing the antagonized dose-response curve IC50 value by the unantagonized IC50 value. IC50 values represent the mean of two to four tissues. IC50 estimates and their associated standard errors are determined by using a computerized nonlinear least-squares method. (MINSQ Least Squares Parameter Estimation, version 3.05; MicroMath Inc., 1999.)

opioid κ receptor [8] = target: T3, opioid κ receptor (Cavia porcellus, UniProt P41144)
T3 sequence (P41144 whole entry): as the sequence (P41144 whole entry) above

opioid δ receptor [9] = target: T4, opioid δ receptor (Rattus norvegicus, UniProt P33533); test: Opioid δ receptor binding, [3H]DADLE displacement in rat brain membranes; settings: displacement of [3H]DADLE (1.3-2.0 nM), rat brain membranes, 100 nM DAMGO to block μ sites; read-out: Ki (nM) ± SEM δ
T4 construct: Rat membranes are prepared each day using a partially thawed frozen rat brain; from tissue; host or cells: rat brain membranes
T4 sequence (P33533 whole entry): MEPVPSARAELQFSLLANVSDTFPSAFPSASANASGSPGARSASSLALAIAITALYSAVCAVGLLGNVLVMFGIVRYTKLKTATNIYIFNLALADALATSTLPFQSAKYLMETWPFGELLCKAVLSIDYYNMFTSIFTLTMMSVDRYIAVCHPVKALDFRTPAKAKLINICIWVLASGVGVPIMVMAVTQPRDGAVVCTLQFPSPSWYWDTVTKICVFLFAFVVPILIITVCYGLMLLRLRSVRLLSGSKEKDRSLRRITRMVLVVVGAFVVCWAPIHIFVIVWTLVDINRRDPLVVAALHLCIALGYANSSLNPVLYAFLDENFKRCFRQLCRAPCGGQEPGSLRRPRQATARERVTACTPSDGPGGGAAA

μ receptor [10] = target: T2, μ receptor; test: biochemical; settings: read-out: agonist activity Emax % μ
mice [11] = test: Tolerance regimen, repeated icv injections, tail-flick assay; settings: A90 doses icv twice daily for 3 days, tail-flick on day 4; FIG. 4
Description: Tolerance Regimen. […] Antinociceptive dose-response curves in the tail-flick assay are generated on the morning of the fourth day using the procedures outlined above.

[12] = target: T1, δ receptor (mouse vas deferens); test: Mouse vas deferens (MVD) smooth muscle bioassay; design: from tissue; host or cells: mouse vas deferens (male ICR mice)
Procedure: as §1, §2, §3

opioid μ receptor [13] = target: T5, opioid μ receptor (Rattus norvegicus, UniProt P33535)
T5 sequence (P33535 whole entry): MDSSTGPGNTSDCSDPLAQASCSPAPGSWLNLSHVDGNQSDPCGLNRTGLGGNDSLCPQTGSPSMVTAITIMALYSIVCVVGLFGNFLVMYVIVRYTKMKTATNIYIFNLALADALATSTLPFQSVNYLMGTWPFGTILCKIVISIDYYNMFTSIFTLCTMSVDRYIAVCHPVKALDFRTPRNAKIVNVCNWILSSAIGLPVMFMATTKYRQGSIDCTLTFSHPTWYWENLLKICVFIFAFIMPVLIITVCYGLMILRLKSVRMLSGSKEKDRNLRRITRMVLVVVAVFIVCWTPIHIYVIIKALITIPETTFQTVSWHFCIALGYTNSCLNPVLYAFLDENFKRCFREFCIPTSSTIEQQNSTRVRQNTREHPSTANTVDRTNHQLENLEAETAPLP

opioid κ receptor [14] = target: T3, opioid κ receptor; settings: data from Ananthan et al. (I), cited from earlier work
[15] = target: T1, δ receptor (mouse vas deferens); design: from tissue; host or cells: mouse vas deferens (male ICR mice); settings: DPDPE as agonist; data from Ananthan et al. (I); cited from earlier work
opioid μ receptor [16] = target: T5, opioid μ receptor; settings: data from Ananthan et al. (I), cited from earlier work
opioid δ receptor [17] = target: T4, opioid δ receptor; settings: read-out: Ki (nM) ± SEM δ; [3H]DADLE, rat brain membranes; data from Ananthan et al. (I); cited from earlier work
[18] = target: μ receptor (guinea pig ileum) (Cavia porcellus, UniProt A0ACM8Q262); settings: data from Ananthan et al. (I), cited from earlier work
Sequence of μ receptor (guinea pig ileum) (A0ACM8Q262 1-400): as the sequence (A0ACM8Q262 1-400) above

T1 sequence (P32300 whole entry): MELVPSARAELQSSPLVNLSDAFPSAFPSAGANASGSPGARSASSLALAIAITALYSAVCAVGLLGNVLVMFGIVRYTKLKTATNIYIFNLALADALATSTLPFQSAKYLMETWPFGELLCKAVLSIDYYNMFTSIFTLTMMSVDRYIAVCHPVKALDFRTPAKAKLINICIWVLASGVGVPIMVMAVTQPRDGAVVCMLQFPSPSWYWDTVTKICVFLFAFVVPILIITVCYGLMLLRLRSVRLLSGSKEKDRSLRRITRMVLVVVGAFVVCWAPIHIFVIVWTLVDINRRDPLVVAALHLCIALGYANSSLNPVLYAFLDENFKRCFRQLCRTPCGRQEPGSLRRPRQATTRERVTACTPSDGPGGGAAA

## Oc1ccc2c3c1O[C@H]1c4ncc(-c5ccc(Cl)cc5)cc4C[C@@]4(O)[C@@H](C2)N(CC2CC2)CC[C@]314 [2c]
[1]
  agonist activity MVD (δ) % max resp: 21%
Mice [2]
  tolerance to antinociceptive effects: did not produce tolerance
Human μ receptors
  μ agonist activity in [35S]GTP-γ-S binding: failed to display μ agonist activity
δ receptor
  Ki: 0.184 nM
Mice [3]
  analgesic activity in the tail-flick assay: partial agonist activity
Mice [4]
  analgesic activity in the acetic acid writhing assay: full agonist activity
κ receptor
  Ki: 11.2 ± 0.44 nM
Mice [5]; icv, 100 nmol, mouse tail-flick
  % nociception @ 100 nmol: 21% @ 100 nmol^f
Mice [5]
  naloxone sensitivity: yes
μ receptor [6]
  μ agonist activity in [35S]GTP-γ-S binding: failed to display μ agonist activity

## CN1CC[C@]23c4c5ccc(O)c4O[C@H]2c2ncc(-c4ccc(Cl)cc4)cc2C[C@H]3[C@H]1C5 [7h, 5′-(4-Chlorophenyl)-6,7-didehydro-4,5α-epoxy-3-hydroxy-17-methylpyrido[2′,3′:6,7]morphinan]
[7]
  IC50: 565 ± 12.7 nM
δ receptor
  Ki: 11 nM
Opioid κ receptor [8]; ratio of binding Ki values
  selectivity ratio κ/δ: 18
Opioid κ receptor [8]; read-out: Ki (nM) ± SEM κ, displacement of [3H]U69,593 (1.2-[…]), guinea pig brain membranes
  Ki: 78 ± 13 nM
Opioid δ receptor [9]
  Ki: 4.4 ± 0.2 nM
κ receptor
  Ki: 333 ± 25 nM
μ receptor [10]
  Emax: 48 ± 2%
Mice [11]
  shift in antinociceptive A50 value after repeated injections: less than 1.1 fold
Mice [5]; icv, mouse tail-flick, at time of peak drug effect
  A50: 42.8 nmol
Mice [5]; mice, full agonist efficacy, FIG. 2
  A50 potency value in the tail flick assay: 21.9
Mice [5]
  naloxone sensitivity: yes
Mice [5]; β-FNA 19 nmol, icv, -24 h, FIG. 3
  blockade of antinociceptive activity by μ selective antagonist β-FNA: completely blocked
[12]
  Kb: 21.9 ± 2.14 nM
Opioid μ receptor [13]; ratio of binding Ki values
  selectivity ratio μ/δ: 34
Opioid μ receptor [13]; read-out: Ki (nM) ± SEM μ, displacement of [3H]DAMGO (1.4-3.0 nM), rat brain membranes
  Ki: 148 ± 9.5 nM

## Oc1ccc2c3c1OC1c4ncc(-c5ccccc5)cc4CC4(O)C(C2)N(CC2CC2)CCC314 (stereo not shown) [2b]
Opioid κ receptor [14]
  selectivity ratio κ/δ: 20
Opioid κ receptor [14]; read-out: Ki (nM) ± SEM κ, [3H]U69,593, guinea pig brain membranes
  Ki: 17.6 ± 1.6 nM
[1]
  agonist activity MVD (δ) % max resp: 4.7%
[15]
  antagonist activity MVD (δ) Ke: 3.7 ± 1.0 nM
Opioid μ receptor [16]
  selectivity ratio μ/δ: 16
Opioid μ receptor [16]; read-out: Ki (nM) ± SEM μ, [3H]DAMGO, rat brain membranes
  Ki: 13.5 ± 1 nM
Opioid δ receptor [17]
  Ki: 0.87 ± 0.07 nM
[18]; PL-017 as agonist
  antagonist activity GPI (μ) Ke: 43 ± 6.6 nM
[18]; percentage inhibition of contraction at 1 μM
  agonist activity GPI (μ) % max resp: 0%
